Data: patent US7169424B2, “Mold inhibitor having reduced corrosiveness” (Kemin Industries, Inc., priority 2003, dated 2007)

Assay: pH
Format: physicochemical
Conditions: free propionic acid, stated in the discussion

With `CCC(=O)O` [free propionic acid, propionic acid] the pH was “less than 2”.
